Data from PubChem BioAssay AID248 (DTP/NCI, 2004).
Values joined by “and” are separate entries in the source; they are usually repeats but may differ in a detail not shown here. Equal entries are not always repeated. Inconclusive results and toxic doses are left out. No stated cut-off is given here; in the data, active means T/C of 150% or more; inactive means T/C below 125%.

Test system: L1210 leukemia ip in BDF1 mice, survival T/C
Assay: NCI In Vivo Anticancer Drug Screen. Data for tumor model L1210 Leukemia (intraperitoneal) in B6D2F1 (BDF1) mice
Details: higher = longer survival
Outline: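 Survival endpoint. Drug-treated group vs vehicle group, expressed as T divided by C. Tumor passaged by transplantation.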

Measured: T/C

Cc1c2ccncc2c(C)c2c1[nH]c1ccccc12
inactive: endpoint: mean survival time, dose: 0.31 mg/kg/injection, schedule: Q#A X018 (ip), vehicle: other 102 % of control | endpoint: mean survival time, dose: 0.5 mg/kg/injection, schedule: Q01DX005 (ip), vehicle: other 105 % of control | endpoint: mean survival time, dose: 0.59 mg/kg/injection, schedule: Q03HX008 (ip), vehicle: other 94 % of control | endpoint: mean survival time, dose: 1.0 mg/kg/injection, schedule: Q01DX009 (ip), vehicle: other 111 % of control | endpoint: mean survival time, dose: 1.0 mg/kg/injection, schedule: Q01DX009 (ip), vehicle: water 107 % of control and 110 % of control | endpoint: mean survival time, dose: 1.0 mg/kg/injection, schedule: Q03HX024 (ip), vehicle: acid diluted with saline 110 % of control | endpoint: mean survival time, dose: 1.18 mg/kg/injection, schedule: Q03HX008 (ip), vehicle: other 98 % of control | endpoint: mean survival time, dose: 1.25 mg/kg/injection, schedule: Q#A X018 (ip), vehicle: other 110 % of control | endpoint: mean survival time, dose: 2.0 mg/kg/injection, schedule: Q01DX009 (ip), vehicle: other 111 % of control | endpoint: mean survival time, dose: 2.0 mg/kg/injection, schedule: Q03HX016 (ip), vehicle: clinical formulation 105 % of control | endpoint: mean survival time, dose: 2.0 mg/kg/injection, schedule: Q03HX016 (oral), vehicle: clinical formulation 95 % of control | endpoint: mean survival time, dose: 3.12 mg/kg/injection, schedule: Q01DX005 (oral), vehicle: saline 95 % of control | endpoint: mean survival time, dose: 3.12 mg/kg/injection, schedule: Q01DX009 (ip), vehicle: clinical formulation 102 % of control | endpoint: mean survival time, dose: 3.12 mg/kg/injection, schedule: Q04DX003 (ip), vehicle: clinical formulation 108 % of control | endpoint: mean survival time, dose: 3.12 mg/kg/injection, schedule: Q04DX009 (ip), vehicle: citric acid 101 % of control | endpoint: mean survival time, dose: 4.0 mg/kg/injection, schedule: Q01DX009 (oral), vehicle: clinical formulation 102 % of control | endpoint: mean survival time, dose: 4.0 mg/kg/injection, schedule: Q03HX008 (oral), vehicle: clinical formulation 109 % of control | endpoint: mean survival time, dose: 4.0 mg/kg/injection, schedule: Q03HX016 (oral), vehicle: clinical formulation 105 % of control | endpoint: mean survival time, dose: 4.0 mg/kg/injection, schedule: Q03HX024 (oral), vehicle: clinical formulation 110 % of control | endpoint: mean survival time, dose: 5.0 mg/kg/injection, schedule: Q01DX015 (oral), vehicle: carboxymethylcellulose (CMC) 105 % of control | endpoint: mean survival time, dose: 6.2 mg/kg/injection, schedule: Q01DX001 (ip), vehicle: saline 108 % of control | endpoint: mean survival time, dose: 6.2 mg/kg/injection, schedule: Q01DX Z (oral), vehicle: saline 110 % of control | endpoint: mean survival time, dose: 6.25 mg/kg/injection, schedule: Q01DX005 (oral), vehicle: saline 104 % of control | endpoint: mean survival time, dose: 6.25 mg/kg/injection, schedule: Q01DX005 (oral), vehicle: water 106 % of control | endpoint: mean survival time, dose: 6.25 mg/kg/injection, schedule: Q04DX003 (ip), vehicle: citric acid 107 % of control | endpoint: mean survival time, dose: 6.25 mg/kg/injection, schedule: Q04DX003 (ip), vehicle: clinical formulation 109 % of control and 110 % of control | endpoint: mean survival time, dose: 6.25 mg/kg/injection, schedule: Q04DX009 (ip), vehicle: citric acid 110 % of control | endpoint: mean survival time, dose: 8.0 mg/kg/injection, schedule: Q04DX003 (ip), vehicle: Klucel (hydroxypropylcellulose) (HPC) 110 % of control | endpoint: mean survival time, dose: 8.0 mg/kg/injection, schedule: Q04DX003 (ip), vehicle: acid diluted with saline 109 % of control | endpoint: mean survival time, dose: 9.37 mg/kg/injection, schedule: Q01DX001 (ip), vehicle: other 103 % of control | endpoint: mean survival time, dose: 9.37 mg/kg/injection, schedule: Q01DX001 (sc), vehicle: other 103 % of control and 104 % of control | endpoint: mean survival time, dose: 9.38 mg/kg/injection, schedule: Q01DX001 (ip), vehicle: other 100 % of control | endpoint: mean survival time, dose: 9.38 mg/kg/injection, schedule: Q04DX003 (ip), vehicle: clinical formulation 110 % of control | endpoint: mean survival time, dose: 10.0 mg/kg/injection, schedule: Q01DX015 (oral), vehicle: carboxymethylcellulose (CMC) 110 % of control | endpoint: mean survival time, dose: 12.5 mg/kg/injection, schedule: Q01DX005 (oral), vehicle: water 109 % of control | endpoint: mean survival time, dose: 12.5 mg/kg/injection, schedule: Q04DX003 (oral), vehicle: saline 106 % of control | endpoint: mean survival time, dose: 12.5 mg/kg/injection, schedule: Q04DX003 (oral), vehicle: water 104 % of control | endpoint: mean survival time, dose: 16.0 mg/kg/injection, schedule: Q03HX008 (ip), vehicle: clinical formulation 94 % of control | endpoint: mean survival time, dose: 16.0 mg/kg/injection, schedule: Q08DX002 (oral), vehicle: clinical formulation 100 % of control | endpoint: mean survival time, dose: 18.75 mg/kg/injection, schedule: Q01DX001 (sc), vehicle: other 107 % of control | endpoint: mean survival time, dose: 25.0 mg/kg/injection, schedule: Q01DX001 (oral), vehicle: saline with Tween-80 103 % of control | endpoint: mean survival time, dose: 25.0 mg/kg/injection, schedule: Q01DX001 (oral), vehicle: water 104 % of control | endpoint: mean survival time, dose: 25.0 mg/kg/injection, schedule: Q01DX009 (ip), vehicle: citric acid 108 % of control | endpoint: mean survival time, dose: 25.0 mg/kg/injection, schedule: Q01DX009 (ip), vehicle: clinical formulation 101 % of control | endpoint: mean survival time, dose: 25.0 mg/kg/injection, schedule: Q04DX003 (oral), vehicle: saline 104 % of control | endpoint: mean survival time, dose: 32.0 mg/kg/injection, schedule: Q01DX001 (oral), vehicle: clinical formulation 106 % of control | endpoint: mean survival time, dose: 32.0 mg/kg/injection, schedule: Q03HX008 (oral), vehicle: clinical formulation 110 % of control | endpoint: mean survival time, dose: 37.5 mg/kg/injection, schedule: Q01DX001 (oral), vehicle: other 110 % of control | endpoint: mean survival time, dose: 37.5 mg/kg/injection, schedule: Q01DX001 (sc), vehicle: saline 101 % of control and 109 % of control | endpoint: mean survival time, dose: 40.0 mg/kg/injection, schedule: Q#A X018 (ip), vehicle: other 105 % of control | endpoint: mean survival time, dose: 50.0 mg/kg/injection, schedule: Q01DX001 (oral), vehicle: water 104 % of control | endpoint: mean survival time, dose: 50.0 mg/kg/injection, schedule: Q01DX009 (ip), vehicle: saline with Tween-80 95 % of control | endpoint: mean survival time, dose: 50.0 mg/kg/injection, schedule: Q01DX009 (oral), vehicle: saline 110 % of control | endpoint: mean survival time, dose: 64.0 mg/kg/injection, schedule: Q04DX003 (ip), vehicle: Klucel (hydroxypropylcellulose) (HPC) 94 % of control and 95 % of control | endpoint: mean survival time, dose: 75.0 mg/kg/injection, schedule: Q01DX001 (oral), vehicle: saline 108 % of control | endpoint: mean survival time, dose: 75.0 mg/kg/injection, schedule: Q01DX001 (sc), vehicle: saline 103 % of control and 105 % of control | endpoint: mean survival time, dose: 75.0 mg/kg/injection, schedule: Q01DX009 (ip), vehicle: saline with Tween-80 98 % of control | endpoint: mean survival time, dose: 75.0 mg/kg/injection, schedule: Q04DX003 (ip), vehicle: clinical formulation 94 % of control | endpoint: mean survival time, dose: 75.0 mg/kg/injection, schedule: Q04DX003 (ip), vehicle: lactic acid 92 % of control | endpoint: mean survival time, dose: 80.0 mg/kg/injection, schedule: Q01DX009 (ip), vehicle: other 104 % of control | endpoint: mean survival time, dose: 80.0 mg/kg/injection, schedule: Q#A X018 (ip), vehicle: other 104 % of control | endpoint: mean survival time, dose: 80.0 mg/kg/injection, schedule: Q#A X018 (oral), vehicle: other 96 % of control | endpoint: mean survival time, dose: 100.0 mg/kg/injection, schedule: Q01DX009 (ip), vehicle: saline with Tween-80 93 % of control | endpoint: mean survival time, dose: 100.0 mg/kg/injection, schedule: Q04DX003 (oral), vehicle: water 110 % of control | endpoint: mean survival time, dose: 128.0 mg/kg/injection, schedule: Q01DX005 (ip), vehicle: saline 100 % of control | endpoint: mean survival time, dose: 128.0 mg/kg/injection, schedule: Q01DX009 (ip), vehicle: water 103 % of control and 108 % of control | endpoint: mean survival time, dose: 128.0 mg/kg/injection, schedule: Q08DX002 (ip), vehicle: clinical formulation 101 % of control | endpoint: mean survival time, dose: 150.0 mg/kg/injection, schedule: Q01DX001 (oral), vehicle: saline with Tween-80 108 % of control | endpoint: mean survival time, dose: 150.0 mg/kg/injection, schedule: Q01DX001 (sc), vehicle: saline 103 % of control and 110 % of control | endpoint: mean survival time, dose: 160.0 mg/kg/injection, schedule: Q01DX015 (oral), vehicle: carboxymethylcellulose (CMC) 104 % of control | endpoint: mean survival time, dose: 170.0 mg/kg/injection, schedule: Q01DX Z (oral), vehicle: saline 105 % of control | endpoint: mean survival time, dose: 200.0 mg/kg/injection, schedule: Q04DX003 (ip), vehicle: water 104 % of control | endpoint: mean survival time, dose: 256.0 mg/kg/injection, schedule: Q01DX005 (ip), vehicle: other 110 % of control | endpoint: mean survival time, dose: 256.0 mg/kg/injection, schedule: Q01DX009 (ip), vehicle: other 104 % of control | endpoint: mean survival time, dose: 300.0 mg/kg/injection, schedule: Q01DX001 (sc), vehicle: saline 110 % of control | endpoint: mean survival time, dose: 300.0 mg/kg/injection, schedule: Q04DX003 (ip), vehicle: saline with Tween-80 103 % of control | endpoint: mean survival time, dose: 300.0 mg/kg/injection, schedule: Q04DX003 (ip), vehicle: saline 100 % of control | endpoint: mean survival time, dose: 400.0 mg/kg/injection, schedule: Q04DX002 (ip), vehicle: Klucel (hydroxypropylcellulose) (HPC) 97 % of control | endpoint: mean survival time, dose: 400.0 mg/kg/injection, schedule: Q04DX003 (oral), vehicle: saline 93 % of control | endpoint: mean survival time, dose: 600.0 mg/kg/injection, schedule: Q01DX001 (ip), vehicle: Klucel (hydroxypropylcellulose) (HPC) 103 % of control | endpoint: mean survival time, dose: 600.0 mg/kg/injection, schedule: Q01DX001 (sc), vehicle: saline 109 % of control and 110 % of control | endpoint: mean survival time, dose: 960.0 mg/kg/injection, schedule: Q01DX001 (ip), vehicle: other 110 % of control | endpoint: median survival time, dose: 2.0 mg/kg/injection, schedule: Q03HX008 (oral), vehicle: other 100 % of control | endpoint: median survival time, dose: 4.0 mg/kg/injection, schedule: Q01DX009 (oral), vehicle: other 111 % of control | endpoint: median survival time, dose: 32.0 mg/kg/injection, schedule: Q01DX009 (oral), vehicle: other 100 % of control | endpoint: median survival time, dose: 32.0 mg/kg/injection, schedule: Q01DX009 (sc), vehicle: water 100 % of control | endpoint: median survival time, dose: 64.0 mg/kg/injection, schedule: Q01DX009 (oral), vehicle: other 94 % of control | endpoint: median survival time, dose: 256.0 mg/kg/injection, schedule: Q01DX001 (sc), vehicle: water 100 % of control | endpoint: median survival time, dose: 400.0 mg/kg/injection, schedule: Q04DX003 (ip), vehicle: saline with Tween-80 111 % of control
